We go through three compounds from ChEMBL document CHEMBL1149002, “Antineoplastic agents, 116. An evaluation of the marine ascidian Aplidium californicum” (1986).

Holding throughout (assay type): functional
Assay [1] relates to P388. Put plainly: In vivo antineoplastic activity against mouse P388 cells assessed as life extension at 46 to 92 ug/kg.
The test system of assay [2] is P388. Put plainly: In vivo antineoplastic activity against mouse P388 cells assessed as life extension at 46 to 185 ug/kg.
Assay [3] deals with P388. As to the kind of experiment: In vivo antineoplastic activity against mouse P388 cells assessed as life extension at 3.1 mg/kg.

Consider `CCCC(=O)O[C@H]1/C(=C/C(=O)OC)C[C@@H]2C[C@H]([C@@H](C)O)OC(=O)C[C@H](O)C[C@@H]3C[C@H](OC(=O)CC(C)C)C(C)(C)[C@](O)(C[C@@H]4C/C(=C/C(=O)OC)C[C@H](/C=C/C(C)(C)[C@]1(O)O2)O4)O3` [BRYOSTATIN 4], for which the Activity with P388 [1] was 62%.

Turning to `COC(=O)/C=C1/C[C@H]2C[C@]3(O)O[C@H](C[C@@H](O)CC(=O)O[C@@H]([C@@H](C)O)C[C@H]4C/C(=C\C(=O)OC)[C@H](OC(C)=O)[C@@](O)(O4)C(C)(C)/C=C/[C@@H](C1)O2)C[C@H](OC(=O)CC(C)C)C3(C)C` [BRYOSTATIN 5], the Activity in the assay on P388 [2] is listed as 45%. Regarding `CC(C)=CCc1cc(O)ccc1O` [PRENYLHYDROQUINONE], in the assay on P388 [3], the Activity is given as 38%.
